Assay results taken from US20260240842A1, “METHODS TO PREVENT THERAPY RESISTANCE IN MELANOMA VIA BLOCKING GENOMIC INSTABILITY” (THE REGENTS OF THE UNIVERSITY OF CALIFORNIA, priority 2022, published 2026).

Tested on: KRAS^G12C NSCLC cell lines (H358, H2122)
Assay: Long-term clonogenic growth, acquired MAPKi resistance in NSCLC cell lines
Type: cell-based, human
Conditions: combined with MAPKi; FIG. 6G to 6J
Excerpt: FIGS. 6A-6J. DNA-PKi co-treatment prevents acquired MAPKi-resistance in KRAS^G12 human pancreatic ductal adenocarcinoma and non-small cell lung carcinoma cell lines. FIGS. 6A to 6J: Long-term clonogenic growth of PDAC (MIAPaCa-2, XWR200) (6A to 6F) or NSCLC (H358, H2122) (6G to 6J) cell lines showing acquired-resistant colonies to MEKi alone, type II RAFi+MEKi, or KRAS G12Ci+MEKi and their suppression by indicated co-treatments with DNA-PKi (NU7026) and/or PARPi (ABT888) at indicated concentrations. Top, representative cultures; bottom, quantifications over n=4 fields (mean±SD). Data representative of 2 independent repeats. Seeding densities (cells/well in 6-well dishes) and culture durations: MIAPaCa-2 (10,000; 30 days for 6A-6C), XWR200 (150,000; 23 days for 6D, 30 days for 6E, 26 days for 6F), H358 (40,000; 14 days for 6G, 29 days for 6H, 26 days for 6I), H2122 (20,000, 22 days for 6J). […]
For clonogenic assay, cells were plated at indicated cell densities in six-well plates and treated with inhibitor(s) the next day. […] Formazan was then dissolved in 100 μL DMSO, and the absorbance values were measured using an ELISA reader (SpectraMax Plus 384) at the wavelength of 570 nm, blanked with DMSO solution. […]

For `C[C@]1(c2nc3c(C(N)=O)cccc3[nH]2)CCCN1` [ABT888, veliparib], which “suppression of acquired MAPKi resistance, number of NSCLC cell lines” value is on record?
Its value is “generally ineffective”.

With `O=c1cc(N2CCOCC2)oc2c1ccc1ccccc12` [NU7026] as the molecule, how does the “suppression of acquired MAPKi resistance, number of NSCLC cell lines” value read?
Its value is “one of two”.
